Measurements: patent publication US6432681B1, “Compositions for treating Escherichia coli urinary tract infections” (The Regents of the University of Washington, priority 1992, dated 2002)

How the values were obtained:
Escherichia coli R45 = assay: Bacterial overlay assay: binding of 35S-labelled E. coli R45 to glycolipids separated on HPTLC; details: for binding of E. coli R45 to glycolipid standards: GSL standards separated on HPTLC plates; for reaction of E. coli R45 with SGG and DSGG standards (FIG. 1A): standards run beside vaginal epithelial cell gangliosides, autoradiogram
Procedure: E. coli R45 was isolated from a person with cystitis which had the pap family genotype, expressing both the P and F adhesins (Stapleton, A. et al., J. Infect Dis., 163:773-779, 1989). Organisms were kept frozen in 50% glycerol/50% Luria broth (Maniatis, T. et al., Molecular Cloning: A Laboratory Manual, 1982) at −70° C. until the night before use, when they were streaked onto Luria agar plates (Maniatis, T. et al., Molecular Cloning: A Laboratory Manual, 1982) to promote fimbrial expression and grown overnight at 37° C. On the day of use, bacteria were scraped from the plate, resuspended in M9 medium (Maniatis, T. et al., Molecular Cloning: A Laboratory Manual, 1982) without amino acids, and shaken at 37° C. for 40 minutes to deplete cellular methionine stores. ^35S-methionine (Trans^35S-label, 1137 Ci/mmol, ICN Biochemicals, Irvine, California) was then added at 200 μCi per 10^10 organisms. The cells were shaken for one hour, washed three times in PBS and resuspended in PBS (pH 7.3), and counted in a scintillation counter to give a final activity of approximately 0.01 to 0.02 cpm/organism.
(§1) Glycolipids (10 to 40 μg/lane) were chromatographed on glass HPTLC plates (Whatman) in CMW (50:40:10 by volume) with 0.05% CaCl2 with one plate run in parallel for orcinol staining. Plates were dried, dipped for 1 minute in diethyl ether containing 0.5% polyisobutylmethacrylate, dried, and preincubated in 1% bovine serum albumin (BSA)/PBS for one hour, then washed three times in PBS. Radiolabelled bacteria were overlaid (10^8 cpm total per plate) and the plates were gently rocked for one hour, washed four times in PBS and subjected to autoradiography.
The binding of metabolically radiolabelled E. coli strain R45 to glycolipid standards separated on HPTLC plates was determined using a broad panel of GSLs with varying carbohydrate moieties, as shown in Table 2.
Subsequent experiments were conducted to identify the unique E. coli-binding GSL band detected in nonsecretors' vaginal epithelial cells. Total upper neutral GSLs and total upper gangliosides were extracted from vaginal epithelial cells pooled in equal quantities from 5 nonsecretors and 9 secretors and reacted with radiolabelled E. coli R45.
Lane 1 contains ceramide trihexoasyl and globoside standards; Lane 2 contains total lower phase GSLs from the nonsecretors; Lane 3 contains total lower phase GSLs from the secretors; Lane 4 contains the Forssman antigen standard; Lanes 5 and 6 contain total upper neutral GSLs from nonsecretors and secretors, respectively; Lanes 7 and 10 contain gal-globoside, sialosyl gal-globoside, and disialosyl gal-globoside standards; Lanes 8 and 9 contain total upper phase gangliosides from nonsecretors and secretors, respectively.

[1] = system: MAb ID4 (directed against SGG); assay: Radioimmunoassay of GSLs immobilized in microtiter wells with MAb ID4; type: binding; details: standards from human pancreas, bovine brain (GD1a), human placenta (disialosyl I)
Procedure: Radioimmunoassays of GSLs immobilized in microtiter wells were performed according to the method of Karlsson (Karlsson, K.-A. et al., Methods Enzymol., 138:220-232, 1987).
The SGG and DSGG bands from the nonsecretors' vaginal epithelial cell extracts were then reacted with ID4 in a radioimmunoassay, shown in FIG. 3.
In FIG. 3, the dotted line indicates sialosyl gal-globoside (SGG) standard from human pancreas; the solid line indicates the band co-migrating with SGG eluted from TLC of nonsecretors' extracted vaginal epithelial cells; the dashed line indicates eluted band co-migrating with DSGG from nonsecretors and the following GSL standards: gal-globoside and DSGG from human pancreas, GD1a from bovine brain, and disialosyl I from human placenta.

[2] = system: E. coli isolates R45, IA2, JJ122, pDC1 and pJFK102; assay: Bacterial overlay assay: binding of five 35S-labelled E. coli UTI isolates to serially diluted globo-series GSLs, radioactivity counted; parameters: species or system Escherichia coli; details: all five isolates; GSL serially diluted from 300 ng to 18.25 ng on HPTLC
Procedure: as §1
Five isolates of E. coli were isolated from patients with UTI, R45 (wild-type cystitis isolate expressing class II pap adhesin), IA2 (wild-type isolate expressing class II pap adhesin), JJ122 (expresses class I pap adhesin), pDC1 (a subclone of IA2, expresses class II pap adhesin) and pJFK102 (expresses class III pap adhesin). The five strains were labelled metabolically with ^35S and exposed to various glycosphingolipids (GSL) separated by HPTLC in the bacterial overlay assay described hereinabove. The amount of radioactivity in the area of each GSL was counted. Controls included HB101.
The GSL's tested were CTH (globotriaosylceramide, isolated from human red blood cells), globoside (also isolated from human erythrocytes), SGG (isolated from vaginal epithelial cells or human kidney), CMH (ceramide monohexoside isolated from adenocarcinoma of colon, negative control) and DSGG (isolated from the same sources as SGG). The GSL's were serially diluted beginning with 300 ng and ending at 18.25 ng.

| Substance | binding of E. coli R45 to glycolipid standards (Escherichia coli R45) | reaction of antibody ID4 with GSL standards (FIG. 3) [1] | level of binding of the E. coli isolates to the GSL [2] | reaction of E. coli R45 with SGG and DSGG standards (FIG. 1A) (Escherichia coli R45) |
| --- | --- | --- | --- | --- |
| (Fucα1-2)Galβ1-3 GalNAcβ1-3 Galα1-4 Galβ1-4 Glcβ1-1cer [Globo H] | bound |  |  |  |
| GD1a |  | did not bind |  |  |
| GalNAcα1-3 (Fucα1-2)Galβ1-3 GalNacβ1-3 Galα1-4 Galβ1-4 Glcβ1-1cer [Globo A] | bound |  |  |  |
| GalNAcα1-3 Galβ1-3 GalNAcβ1-3 Galα1-4 Galβ1-4 Glcβ1-1cer [Forssman] | bound |  |  |  |
| GalNAcβ1-3 Galα1-4 Galβ1-4 Glcβ1-1cer [Globoside] | bound |  | lower than to DSGG |  |
| Galα1-4 Galβ1-4 Glcβ1-1cer [CTH] |  |  | lower than to DSGG |  |
| Galβ1-3 GalNAcβ1-3 Galα1-4 Galβ1-4 Glcβ1-1cer [Gal-globoside] | bound | did not bind |  |  |
| NeuAcα2-3 (NeuAcα2-6)Galβ1-3 GalNAcβ1-3 Galα1-4 Galβ1-4 Glcβ1-1cer [DSGG] |  | did not bind |  | reacted |
| NeuAcα2-3 Galβ1-3 GalNAcβ1-3 Galα1-4 Galβ1-4 Glcβ1-1ce [SGG] |  | reacted | highest binding | reacted |
